Test results reported in ChEMBL document CHEMBL5244230, “Artemisinin-derived hybrids and their anticancer activity” (Eur J Med Chem, 2020).

Tests used:
MDA-MB-231 [1] = assay: Antiproliferative activity against human MDA-MB-231 cells assessed as reduction in cell viability; type: functional, cell-based
HT-29 = assay: Antiproliferative activity against human HT-29 cells assessed as reduction in cell viability; type: functional, cell-based
HCT-116 [2] = assay: Antiproliferative activity against human HCT-116 cells; type: functional, cell-based
PC-3 = assay: Antiproliferative activity against human PC-3 cells; type: functional, cell-based
MDA-MB-231 [3] = assay: Antiproliferative activity against human MDA-MB-231 cells; type: functional, cell-based; details: Homo sapiens, MDA-MB-231
[4] = Antiproliferative activity against human U-87 MG cells; type: functional, cell-based, U-87MG ATCC
A549 = assay: Antiproliferative activity against human A549 cells; type: functional, cell-based
NCI-H460 = assay: Antiproliferative activity against human NCI-H460 cells; type: functional, cell-based
MCF7 = assay: Anticancer activity against human MCF7 cells; type: functional, cell-based
HCT-116 [5] = assay: Antiproliferative activity against human HCT-116 cells assessed as reduction in cell viability; type: functional, cell-based; details: Homo sapiens, HCT-116

Row | SMILES | IC50 (HT-29) [nM] | IC50 (HCT-116 [2]) [nM] | IC50 (PC-3) [nM] | IC50 (MDA-MB-231 [3]) [nM] | IC50 (A549) [nM] | other results
1 | Cc1cc(=O)oc2cc(OCCCn3cc(CO[C@H]4O[C@@H]5O[C@@]6(C)CC[C@H]7[C@H](C)CC[C@@H]([C@H]4C)[C@@]57OO6)nn3)ccc12 | 430 | – | – | – | – | IC50 (MDA-MB-231 [1]): 430 nM
2 | CC1=C(CCCO[C@H]2O[C@@H]3O[C@@]4(C)CC[C@H]5[C@H](C)CC[C@@H]([C@H]2C)[C@@]35OO4)C(=O)C(C(C)C)=CC1=O | – | > 100000 | > 100000 | – | – | –
3 | C[C@H]1[C@H](OCCNC(=O)c2ccc(COc3ccc(/C=C/S(=O)(=O)Nc4ccc(OC(F)(F)F)cc4)cc3)cc2)O[C@@H]2O[C@@]3(C)CC[C@H]4[C@H](C)CC[C@@H]1[C@@]24OO3 | 90 | – | – | 90 | – | IC50 [4]: 90 nM
4 | Cc1ccc(F)c(NS(=O)(=O)/C=C/c2ccc(OCc3ccc(C(=O)NCCO[C@@H]4O[C@@H]5O[C@@]6(C)CC[C@H]7[C@H](C)CC[C@@H]([C@H]4C)[C@@]57OO6)cc3)cc2)c1 | 90 | – | – | 90 | 90 | IC50 [4]: 90 nM; IC50 (NCI-H460): 90 nM
5 | CCOC(=O)c1cc2ccc(OCCCn3cc(CO[C@H]4O[C@@H]5O[C@@]6(C)CC[C@H]7[C@H](C)CC[C@@H]([C@H]4C)[C@@]57OO6)nn3)cc2oc1=O | 430 | – | – | – | – | IC50 (MDA-MB-231 [1]): 430 nM
6 | C[C@H]1[C@H](OCCOc2cccc(/C=C/S(=O)(=O)Nc3ccccc3Cl)c2)O[C@@H]2O[C@@]3(C)CC[C@H]4[C@H](C)CC[C@@H]1[C@@]24OO3 | 50 | – | – | 50 | 50 | IC50 [4]: 50 nM; IC50 (NCI-H460): 50 nM
7 | C[C@H]1[C@@H](CC(=O)O[C@@H]2C[C@@H](OC(=O)C[C@H]3O[C@@H]4O[C@@]5(C)CC[C@H]6[C@H](C)CC[C@@H]([C@H]3C)[C@@]46OO5)[C@H](C)O[C@H]2O[C@H](C)CCCCC2OCOO2)O[C@@H]2O[C@@]3(C)CC[C@H]4[C@H](C)CC[C@@H]1[C@@]24OO3 (some centres not stated) | – | – | – | – | 5500 | IC50 (MDA-MB-231 [1]): 5500 nM; IC50 (MCF7): 5500 nM
8 | C[C@H]1[C@@H](OCc2cn(CCOc3ccc4c(C(F)(F)F)cc(=O)oc4c3)nn2)O[C@@H]2O[C@@]3(C)CC[C@H]4[C@H](C)CC[C@@H]1[C@@]24OO3 | 430 | – | – | – | – | IC50 (HCT-116 [5]): 430 nM; IC50 (MDA-MB-231 [1]): 430 nM
9 | C[C@H]1[C@H](OCCOc2cccc(/C=C/S(=O)(=O)Nc3ccc(OC(F)(F)F)cc3)c2)O[C@@H]2O[C@@]3(C)CC[C@H]4[C@H](C)CC[C@@H]1[C@@]24OO3 | 50 | – | – | 50 | 50 | IC50 [4]: 50 nM; IC50 (NCI-H460): 50 nM
10 | C[C@H]1[C@@H](OC(=O)CCC(=O)O)O[C@@H]2O[C@@]3(C)CC[C@H]4[C@H](C)CC[C@@H]1[C@@]24OO3 | – | 5300 | 5300 | – | – | –
11 | C[C@H]1[C@H](OCCOc2cccc(/C=C/S(=O)(=O)Nc3cccc(Cl)c3)c2)O[C@@H]2O[C@@]3(C)CC[C@H]4[C@H](C)CC[C@@H]1[C@@]24OO3 | 50 | – | – | 50 | 50 | IC50 [4]: 50 nM; IC50 (NCI-H460): 50 nM
12 | CC1=C(CCCCO[C@H]2O[C@@H]3O[C@@]4(C)CC[C@H]5[C@H](C)CC[C@@H]([C@H]2C)[C@@]35OO4)C(=O)C(C(C)C)=CC1=O | – | > 100000 | > 100000 | – | – | –
13 | Cc1c(Cl)c(=O)oc2cc(OCCCn3cc(CO[C@H]4O[C@@H]5O[C@@]6(C)CC[C@H]7[C@H](C)CC[C@@H]([C@H]4C)[C@@]57OO6)nn3)ccc12 | 430 | – | – | – | – | IC50 (MDA-MB-231 [1]): 430 nM
14 | C[C@H]1[C@H](OCCNC(=O)c2ccc(COc3ccc(/C=C/S(=O)(=O)Nc4ccccc4)cc3)cc2)O[C@@H]2O[C@@]3(C)CC[C@H]4[C@H](C)CC[C@@H]1[C@@]24OO3 | 90 | – | – | 90 | – | –
15 | CC1=CC(=O)C(C(C)C)=CC1=O [THYMOQUINONE] | – | 50100 | 50100 | – | – | –
16 | C[C@H]1[C@H](OCCNC(=O)c2ccc(COc3ccc(/C=C/S(=O)(=O)Nc4ccccc4Cl)cc3)cc2)O[C@@H]2O[C@@]3(C)CC[C@H]4[C@H](C)CC[C@@H]1[C@@]24OO3 | 90 | – | – | 90 | 90 | –
17 | CC1=C(CCCCOC(=O)CCC(=O)O[C@@H]2O[C@@H]3O[C@@]4(C)CC[C@H]5[C@H](C)CC[C@@H]([C@H]2C)[C@@]35OO4)C(=O)C(C(C)C)=CC1=O | – | > 100000 | > 100000 | – | – | –
18 | CC1=C(CCCCOC(=O)C[C@H]2O[C@@H]3O[C@@]4(C)CC[C@H]5[C@H](C)CC[C@@H]([C@H]2C)[C@@]35OO4)C(=O)C(C(C)C)=CC1=O | – | > 100000 | > 100000 | – | – | –
